Source: patent publication US6127519A, “Calcitonin derivatives” (Tsumura & Co., priority 1990, dated 2000)
Bridge positions count the residues as written; N and C are the ends. Ends that are not written are not given here. Peptide text beside a SMILES is read from it.

Tested on: calcium concentration in the serum
Test: Test 1: reduction of calcium level in serum after tail vein administration to rats
Format: in vivo, rats of the Wistar strain
Settings: 1 ml/kg tail vein, female Wistar rats
Summary of the method: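 Female Wistar rats, six weeks old, were assigned in groups of 4 and given the test peptides through the tail vein at 1 ml/kg. The peptides were dissolved in 1% aqueous sodium acetate (pH 4,0) containing 0.1% BSA. Blood (0.3 ml) was drawn from the neck vein immediately before dosing and at set times afterward. Serum was separated by centrifuging at 3500 rpm for 20 minutes. Calcium was measured on a TBA-380 analyzer with a Wako o-cpc kit, and the percentage reduction in serum calcium was calculated.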

[1] = concentration 830 ng/ml, 0 hour (just before administration)
[2] = concentration 830 ng/ml, 1 hour
[3] = concentration 830 ng/ml, 2 hours
[4] = concentration 830 ng/ml, 4 hours
[5] = concentration 830 ng/ml, 6 hours

## CC[C@H](C)[C@H](NC(=O)[C@H](C)NC(=O)[C@@H](NC(=O)[C@H](CCC(N)=O)NC(=O)[C@@H]1CCCN1C(=O)[C@H](Cc1ccc(O)cc1)NC(=O)[C@@H](NC(=O)[C@H](CCC(N)=O)NC(=O)CNC(=O)[C@H](CCCCN)NC(=O)[C@H](Cc1c[nH]cn1)NC(=O)[C@H](CC(C)C)NC(=O)[C@H](CCC(=O)O)NC(=O)[C@H](CCC(N)=O)NC(=O)[C@H](CO)NC(=O)[C@H](CC(C)C)NC(=O)[C@H](CCCCN)NC(=O)CNC(=O)[C@H](CC(C)C)NC(=O)[C@H](CCSC)NC(=O)[C@@H]1CSSC[C@H](N)C(=O)NCC(=O)N[C@@H](CC(N)=O)C(=O)N[C@@H](CC(C)C)C(=O)N[C@@H](CO)C(=O)N[C@@H]([C@@H](C)O)C(=O)N1)[C@@H](C)O)[C@@H](C)O)C(=O)NCC(=O)N[C@H](C(=O)NCC(=O)N[C@@H](C)C(=O)N1CCC[C@H]1C(N)=O)C(C)C [Peptide No. 4] (H-CGNLSTCMLGKLSQELHKGQTYPQTAIGVGAP-NH2; disulfide 1-7)
[1]
  Serum calcium level as percent of pre-dose baseline: 100.0%
[2]
  Serum calcium level as percent of pre-dose baseline: 90.5%
[3]
  Serum calcium level as percent of pre-dose baseline: 92.0%
[4]
  Serum calcium level as percent of pre-dose baseline: 95.5%
[5]
  Serum calcium level as percent of pre-dose baseline: 86.7%

## CC[C@H](C)[C@H](NC(=O)[C@H](C)NC(=O)[C@@H](NC(=O)[C@H](CCC(N)=O)NC(=O)[C@@H]1CCCN1C(=O)[C@H](Cc1ccc(O)cc1)NC(=O)[C@@H](NC(=O)[C@H](CCC(N)=O)NC(=O)CNC(=O)[C@H](CCCCN)NC(=O)[C@H](Cc1c[nH]cn1)NC(=O)[C@H](CC(C)C)NC(=O)[C@H](CCC(=O)O)NC(=O)[C@H](CCC(N)=O)NC(=O)[C@H](CO)NC(=O)[C@H](CC(C)C)NC(=O)[C@H](CCCCN)NC(=O)CNC(=O)[C@H](CC(C)C)NC(=O)[C@H](CCSC)NC(=O)[C@@H]1CSSC[C@H](N)C(=O)NCC(=O)N[C@@H](CC(N)=O)C(=O)N[C@@H](CC(C)C)C(=O)N[C@@H](CO)C(=O)N[C@@H]([C@@H](C)O)C(=O)N1)[C@@H](C)O)[C@@H](C)O)C(=O)NCC(=O)N[C@@H](CO)C(=O)NCC(=O)N[C@H](C(=O)N1CCC[C@H]1C(N)=O)[C@@H](C)O [Peptide No. 8] (H-CGNLSTCMLGKLSQELHKGQTYPQTAIGSGTP-NH2; disulfide 1-7)
[1]
  Serum calcium level as percent of pre-dose baseline: 100.0%
[2]
  Serum calcium level as percent of pre-dose baseline: 76.6%
[3]
  Serum calcium level as percent of pre-dose baseline: 78.2%
[4]
  Serum calcium level as percent of pre-dose baseline: 99.7%
[5]
  Serum calcium level as percent of pre-dose baseline: 96.3%

## AGNLSTAMLGKLSQELHKQTYPQTAIGVGAP-NH2 [Peptide No. 15]
Concentration 166 ng/ml, 0 hour (just before administration)
  Serum calcium level as percent of pre-dose baseline: 100.0%
Concentration 166 ng/ml, 1 hour
  Serum calcium level as percent of pre-dose baseline: 75.5%
Concentration 166 ng/ml, 2 hours
  Serum calcium level as percent of pre-dose baseline: 67.5%
Concentration 166 ng/ml, 4 hours
  Serum calcium level as percent of pre-dose baseline: 80.6%
Concentration 166 ng/ml, 6 hours
  Serum calcium level as percent of pre-dose baseline: 75.3%

## CC[C@H](C)[C@H](NC(=O)[C@H](C)NC(=O)[C@@H](NC(=O)[C@H](CCC(N)=O)NC(=O)[C@@H]1CCCN1C(=O)[C@H](Cc1ccc(O)cc1)NC(=O)[C@H](CC(C)C)NC(=O)[C@H](CCCCN)NC(=O)[C@H](Cc1c[nH]cn1)NC(=O)[C@H](CC(C)C)NC(=O)[C@H](CCC(=O)O)NC(=O)[C@H](CCC(N)=O)NC(=O)[C@H](CO)NC(=O)[C@H](CC(C)C)NC(=O)[C@H](CCCCN)NC(=O)CNC(=O)[C@H](CC(C)C)NC(=O)[C@H](CCSC)NC(=O)[C@@H]1CSSC[C@H](N)C(=O)NCC(=O)N[C@@H](CC(N)=O)C(=O)N[C@@H](CC(C)C)C(=O)N[C@@H](CO)C(=O)N[C@@H]([C@@H](C)O)C(=O)N1)[C@@H](C)O)C(=O)NCC(=O)N[C@@H](CO)C(=O)NCC(=O)N[C@H](C(=O)N1CCC[C@H]1C(N)=O)[C@@H](C)O [Peptide No. 7] (H-CGNLSTCMLGKLSQELHKLYPQTAIGSGTP-NH2; disulfide 1-7)
[1]
  Serum calcium level as percent of pre-dose baseline: 100.0%
[2]
  Serum calcium level as percent of pre-dose baseline: 81.9%
[3]
  Serum calcium level as percent of pre-dose baseline: 91.7%
[4]
  Serum calcium level as percent of pre-dose baseline: 97.4%
[5]
  Serum calcium level as percent of pre-dose baseline: 100.0%
